Assay results: the NIST ThermoML archive (doi:10.1021/je060271a)
Several values for one entry are separate records, joined by “and”; a condition that tells them apart may be missing. Equal entries are not always repeated.

Details: 303.16 K, Liquid, Vibrating tube method

CCCCCC(=O)OCC(COC(=O)CCCCC)(COC(=O)CCCCC)COC(=O)CCCCC [pentaerythritol tetrahexanoate]
Details | mass density
243.6 kPa | 988.4 kg/m3
243.8 kPa | 988.7 kg/m3
244.8 kPa | 988.5 kg/m3 and 988.6 kg/m3
245.2 kPa | 988.4 kg/m3 and 988.6 kg/m3
245.3 kPa | 988.5 kg/m3
245.5 kPa | 988.5 kg/m3
245.9 kPa | 988.5 kg/m3 and 988.6 kg/m3
246.2 kPa | 988.5 kg/m3
246.6 kPa | 988.5 kg/m3
246.7 kPa | 988.4 kg/m3
247.3 kPa | 988.6 kg/m3 and 988.5 kg/m3
247.4 kPa | 988.4 kg/m3
248.5 kPa | 988.5 kg/m3
248.8 kPa | 988.5 kg/m3
249.2 kPa | 988.4 kg/m3
249.3 kPa | 988.6 kg/m3
250.7 kPa | 988.5 kg/m3
251.1 kPa | 988.4 kg/m3
251.2 kPa | 988.6 kg/m3
251.4 kPa | 988.5 kg/m3
251.6 kPa | 988.5 kg/m3
251.9 kPa | 988.5 kg/m3
252.1 kPa | 988.5 kg/m3
252.3 kPa | 988.5 kg/m3
252.5 kPa | 988.6 kg/m3
252.6 kPa | 988.4 kg/m3
252.8 kPa | 988.6 kg/m3
253 kPa | 988.4 kg/m3
253.5 kPa | 988.5 kg/m3
253.7 kPa | 988.4 kg/m3
254 kPa | 988.5 kg/m3
254.2 kPa | 988.5 kg/m3
254.6 kPa | 988.4 kg/m3
254.7 kPa | 988.5 kg/m3
255.1 kPa | 988.6 kg/m3
255.2 kPa | 988.6 kg/m3
255.4 kPa | 988.5 kg/m3
255.6 kPa | 988.5 kg/m3
255.9 kPa | 988.5 kg/m3
256.3 kPa | 988.5 kg/m3
256.5 kPa | 988.5 kg/m3
256.6 kPa | 988.5 kg/m3
257 kPa | 988.6 kg/m3 and 988.5 kg/m3
257.3 kPa | 988.6 kg/m3
257.5 kPa | 988.5 kg/m3
257.8 kPa | 988.6 kg/m3 and 988.5 kg/m3
258 kPa | 988.5 kg/m3
258.4 kPa | 988.4 kg/m3
258.5 kPa | 988.5 kg/m3
258.7 kPa | 988.5 kg/m3
259.1 kPa | 988.7 kg/m3
259.4 kPa | 988.6 kg/m3 and 988.5 kg/m3
259.6 kPa | 988.6 kg/m3
259.8 kPa | 988.5 kg/m3
260.1 kPa | 988.5 kg/m3
260.3 kPa | 988.6 kg/m3
260.4 kPa | 988.4 kg/m3
260.8 kPa | 988.5 kg/m3 and 988.4 kg/m3
261.1 kPa | 988.5 kg/m3
261.3 kPa | 988.6 kg/m3
261.8 kPa | 988.5 kg/m3
262.5 kPa | 988.4 kg/m3 and 988.5 kg/m3
262.7 kPa | 988.5 kg/m3
263.1 kPa | 988.5 kg/m3
263.2 kPa | 988.6 kg/m3 and 988.5 kg/m3
263.7 kPa | 988.5 kg/m3
264.1 kPa | 988.5 kg/m3
264.3 kPa | 988.5 kg/m3
264.4 kPa | 988.6 kg/m3 and 988.5 kg/m3
265 kPa | 988.6 kg/m3
265.1 kPa | 988.5 kg/m3
265.3 kPa | 988.5 kg/m3
265.7 kPa | 988.5 kg/m3
266.2 kPa | 988.6 kg/m3
266.3 kPa | 988.5 kg/m3
266.4 kPa | 988.5 kg/m3 and 988.6 kg/m3
266.7 kPa | 988.5 kg/m3 and 988.6 kg/m3
266.9 kPa | 988.6 kg/m3
267.1 kPa | 988.6 kg/m3
267.4 kPa | 988.4 kg/m3
267.7 kPa | 988.6 kg/m3
267.9 kPa | 988.5 kg/m3
268.3 kPa | 988.5 kg/m3
268.6 kPa | 988.5 kg/m3 and 988.4 kg/m3
268.8 kPa | 988.5 kg/m3
269 kPa | 988.4 kg/m3
269.1 kPa | 988.5 kg/m3
270 kPa | 988.5 kg/m3
270.2 kPa | 988.5 kg/m3
270.7 kPa | 988.6 kg/m3
271 kPa | 988.6 kg/m3
271.2 kPa | 988.5 kg/m3
271.4 kPa | 988.6 kg/m3
271.6 kPa | 988.6 kg/m3
272.1 kPa | 988.6 kg/m3 and 988.5 kg/m3
272.4 kPa | 988.6 kg/m3
274.2 kPa | 988.6 kg/m3
274.7 kPa | 988.6 kg/m3 and 988.5 kg/m3
275 kPa | 988.5 kg/m3
275.2 kPa | 988.5 kg/m3
275.6 kPa | 988.5 kg/m3
275.7 kPa | 988.6 kg/m3
275.9 kPa | 988.5 kg/m3
276.1 kPa | 988.4 kg/m3
276.4 kPa | 988.6 kg/m3
276.8 kPa | 988.4 kg/m3 and 988.5 kg/m3
277.3 kPa | 988.5 kg/m3
277.5 kPa | 988.5 kg/m3
277.6 kPa | 988.5 kg/m3
278 kPa | 988.6 kg/m3
278.2 kPa | 988.5 kg/m3
278.3 kPa | 988.6 kg/m3
279 kPa | 988.4 kg/m3 and 988.5 kg/m3
279.2 kPa | 988.5 kg/m3
279.5 kPa | 988.6 kg/m3
279.9 kPa | 988.6 kg/m3
280.2 kPa | 988.5 kg/m3
280.6 kPa | 988.5 kg/m3
280.8 kPa | 988.6 kg/m3
280.9 kPa | 988.6 kg/m3
281.3 kPa | 988.5 kg/m3
281.8 kPa | 988.5 kg/m3
282 kPa | 988.6 kg/m3
282.3 kPa | 988.6 kg/m3
282.5 kPa | 988.6 kg/m3
282.7 kPa | 988.5 kg/m3
283.2 kPa | 988.5 kg/m3
283.5 kPa | 988.6 kg/m3
283.7 kPa | 988.5 kg/m3
283.9 kPa | 988.6 kg/m3
284.9 kPa | 988.6 kg/m3
285.3 kPa | 988.4 kg/m3
285.6 kPa | 988.6 kg/m3
286.1 kPa | 988.5 kg/m3 and 988.6 kg/m3
286.5 kPa | 988.6 kg/m3
287 kPa | 988.6 kg/m3
287.2 kPa | 988.6 kg/m3
287.5 kPa | 988.5 kg/m3
287.9 kPa | 988.5 kg/m3
288.6 kPa | 988.5 kg/m3
289.8 kPa | 988.5 kg/m3
290.7 kPa | 988.5 kg/m3
291 kPa | 988.6 kg/m3
291.5 kPa | 988.5 kg/m3
291.7 kPa | 988.6 kg/m3
